The source of these data is the C3SDB collision cross section collection.

Where “and” joins values, the source holds several entries; their conditions need not be identical. Equal entries are not always repeated.

For series [1] the following is noted: instrument: DT, single field, calibrated with ESI Low Concentration Tuning Mix (Agilent).
The conditions of series [2]: instrument: TW, calibrated with polyalanine and drug standards.

As to `C[n+]1cccc(C(N)=O)c1` [1-METHYLNICOTINAMIDE], in series [1] ([M+]+), the “collision cross section (N2)” value worked out at 126.2 Å².

With `CC(=O)N[C@@H]1[C@@H](O)[C@H](O)[C@@H](CO)O[C@H]1N` [2-ACETAMIDO-2-DEOXY-BETA-D-GLUCOSYLAMINE], the “collision cross section (N2)” value is 149.1 Å² and 157.8 Å² in series [1] ([M+Na]+); 155.2 Å² in series [1] ([M-H]-).

With `CC[C@H](O)C(=O)O` [2-HYDROXYBUTYRATE], the “collision cross section (N2)” value in series [1] ([M-H]-) worked out at 117.2 Å².

In the case of `CC(CCC(=O)O)C(=O)O` (stereo unspecified) [2-METHYLGLUTARATE], the “collision cross section (N2)” value in series [1] ([M+Na-2H]-) is 132.6 Å²; in series [1] ([M+Na]+), 137.4 Å²; in series [1] ([M-H]-), 126 Å².

Consider `C/C(=C/C(=O)O)C(=O)O` [2-METHYLMALEATE], for which, in series [1] ([M-H]-), the “collision cross section (N2)” value is reported as 118.2 Å².

Turning to `O=C(O)C(CO)OP(=O)(O)O` (stereo unspecified) [2-PHOSPHOGLYCERATE], the “collision cross section (N2)” value in series [1] ([M+H]+) came out at 134.3 Å²; in series [1] ([M+Na-2H]-), 133.1 Å²; in series [1] ([M+Na]+), 141.9 Å²; in series [1] ([M-H]-), 124.2 Å².

As to `O=C(O)c1ccc([O-])c(O)c1` [3,4-DIHYDROXYBENZOATE], in series [1] ([M-H]-), the “collision cross section (N2)” value stood at 122.5 Å².

In the case of `N[C@@H](Cc1cc(I)c(Oc2ccc(O)cc2)c(I)c1)C(=O)O` [3,5-DIIODO-L-THYRONINE], the “collision cross section (N2)” value in series [1] ([M+H]+) is recorded as 198.5 Å²; in series [1] ([M+Na]+), 189.4 Å²; in series [1] ([M-H]-), 188.2 Å².

With `O=C([O-])CCc1ccccc1O` [3-(2-HYDROXYPHENYL)PROPANOATE], in series [1] ([M-H]-), the “collision cross section (N2)” value is given as 133.2 Å².

On to `O=Cc1cccc(O)c1` [3-HYDROXYBENZALDEHYDE], for which the “collision cross section (N2)” value in series [1] ([M-H]-) came out at 118 Å².

Regarding `CC1C(=O)Nc2ccccc21` (stereo unspecified) [3-METHYL-2-OXINDOLE], the “collision cross section (N2)” value in series [1] ([M+H]+) was 130.4 Å².

On to `CCC(C)C(=O)C(=O)O` (stereo unspecified) [3-METHYL-2-OXOVALERATE], for which, in series [1] ([M-H]-), the “collision cross section (N2)” value is reported as 127.1 Å².

As for `NC(CS(=O)O)C(=O)O` (stereo unspecified) [3-SULFINOALANINE], in series [1] ([M+H]+), the “collision cross section (N2)” value is reported as 133.7 Å².

Consider `Nc1ccc(C(=O)[O-])cc1` [4-AMINOBENZOATE], for which the “collision cross section (N2)” value in series [1] ([M+H]+) worked out at 126.9 Å².

Turning to `Cc1ccc(O)c(O)c1` [4-METHYLCATECHOL], the “collision cross section (N2)” value in series [1] ([M-H]-) is given as 121 Å².

As to `O=C(O)c1ccnc2ccccc12` [4-QUINOLINECARBOXYLATE], the “collision cross section (N2)” value in series [1] ([M+H]+) is given as 133.4 Å²; in series [1] ([M-H]-), 134.3 Å².

`C[C@H]1O[C@@H](n2cnc3c(N)ncnc32)[C@H](O)[C@@H]1O` [5'-DEOXYADENOSINE]: the “collision cross section (N2)” value is 152.3 Å² and 158.4 Å² in series [1] ([M+H]+); 167.2 Å² in series [1] ([M+Na]+); 154.8 Å² in series [1] ([M-H]-).

For the molecule `Cc1cc2nc[nH]c2cc1C` [5,6-DIMETHYLBENZIMIDAZOLE], the “collision cross section (N2)” value is given as 130.3 Å² in series [1] ([M+H]+) and 129.9 Å² in series [1] ([M-H]-).

As for `NC(Cc1c[nH]c2ccc(O)cc12)C(=O)O` (stereo unspecified) [5-HYDROXYTRYPTOPHAN], the “collision cross section (N2)” value in series [1] ([M+H]+) is 154.5 Å²; in series [1] ([M+Na-2H]-), 149.7 Å²; in series [1] ([M+Na]+), 152.6 Å²; in series [1] ([M-H]-), 146.9 Å² and 151.5 Å².

In the case of `O=C(O)CCCCCC(=O)O` [6-CARBOXYHEXANOATE], the results for the “collision cross section (N2)” value in series [1] ([M+Na-2H]-), in series [1] ([M+Na]+) and in series [1] ([M-H]-) were 134.4 Å², 140 Å² and 130.9 Å², respectively.

Turning to `O=C(O)CCCCCCCCCO` [10-HYDROXYDECANOATE], the figures for the “collision cross section (N2)” value in series [1] ([M+Na]+) and in series [1] ([M-H]-) were 151 Å² and 144.3 Å², respectively.

`NCCP(=O)(O)O` [(2-AMINOETHYL)PHOSPHONATE]: the “collision cross section (N2)” value is reported as 129 Å² in series [1] ([M+H]+), 136.5 Å² in series [1] ([M+Na]+) and 120 Å² in series [1] ([M-H]-).

Turning to `Nc1ncnc2c1ncn2[C@@H]1O[C@H](COP(=O)(O)O)[C@@H](OP(=O)(O)O)[C@H]1O` [ADENOSINE 3',5'-DIPHOSPHATE], the “collision cross section (N2)” value was found to be 183.3 Å² in series [1] ([M+H]+), 188.5 Å² in series [1] ([M+Na-2H]-), 188 Å² in series [1] ([M+Na]+) and 184.3 Å² in series [1] ([M-H]-).

In the case of `Nc1ncnc2c1ncn2C1OC(COP(=O)(O)OP(=O)(O)OCC2OC(O)C(O)C2O)C(O)C1O` (stereo unspecified) [ADENOSINE DIPHOSPHATE RIBOSE], the “collision cross section (N2)” value in series [1] ([M+H2O-H]-) is 204.5 Å²; in series [1] ([M+H]+), 212.4 Å²; in series [1] ([M+Na-2H]-) it was 211.5 Å²; in series [1] ([M+Na]+), 217.5 Å²; in series [1] ([M-H]-), 202.3 Å² and 207.2 Å².

In the case of `Nc1ncnc2c1ncn2[C@@H]1O[C@H](COP(=O)(O)OP(=O)(O)O[C@H]2O[C@H](CO)[C@@H](O)[C@H](O)[C@H]2O)[C@@H](O)[C@H]1O` [ADP-GLUCOSE], the “collision cross section (N2)” value is 216.1 Å² in series [1] ([M+H]+), 218.4 Å² in series [1] ([M+Na-2H]-), 224.9 Å² in series [1] ([M+Na]+) and 217.5 Å² in series [1] ([M-H]-).

On to `C[C@H](O)[C@H](N)C(=O)O` [ALLOTHREONINE], for which the “collision cross section (N2)” value in series [1] ([M-H]-) was 119.3 Å².

`O=C(O[C@@H]1Cc2c(O)cc(O)cc2O[C@@H]1c1cc(=O)c(O)c2c(O)c(O)cc([C@H]3Oc4cc(O)cc(O)c4C[C@H]3O)c2c1)c1cc(O)c(O)c(O)c1` [THEAFLAVIN MONOGALLATES]: the “collision cross section (N2)” value in series [2] ([M+H]+) was 245.7 Å².

Take `O=c1cc([C@H]2Oc3cc(O)cc(O)c3C[C@H]2O)cc2c([C@H]3Oc4cc(O)cc(O)c4C[C@H]3O)cc(O)c(O)c2c1O` [THEAFLAVIN]: the “collision cross section (N2)” value in series [2] ([M+H]+) came to 219.8 Å².

As for `Nc1nc(=S)c2[nH]cnc2[nH]1` [THIOGUANINE], the “collision cross section (N2)” value in series [2] ([M+H]+) turned out to be 129.7 Å².

As for `Nc1nc(=S)c2ncn([C@@H]3O[C@H](CO)[C@@H](O)[C@H]3O)c2[nH]1` [THIOGUANOSINE], the “collision cross section (N2)” value in series [2] ([M+H]+) amounted to 164 Å².

Regarding `O=c1oc2cc(O)ccc2s1` [TIOXOLONE], the “collision cross section (N2)” value in series [2] ([M+H]+) is given as 130.2 Å².

Take `CC(=O)OCC(=O)[C@@]1(O)[C@H](OC(C)=O)C[C@H]2[C@@H]3CCC4=CC(=O)C=C[C@]4(C)[C@@]3(F)[C@@H](O)C[C@@]21C` [TRIAMCINOLONE DIACETATE]: the “collision cross section (N2)” value in series [2] ([M+H]+) is on record as 209.5 Å².

As for `CSc1nc2cc(Oc3cccc(Cl)c3Cl)c(Cl)cc2[nH]1` [TRICLABENDAZOLE], the “collision cross section (N2)” value in series [2] ([M+H]+) amounted to 179.3 Å².

Consider `COc1cc2c(c(OC)c1OC)-c1ccc(O)c(=O)cc1[C@@H](N)CC2` [TRIMETHYLCOLCHICINIC ACID], for which the “collision cross section (N2)” value in series [2] ([M+H]+) turned out to be 181 Å².

`Cc1cc2cc3c(C)cc(=O)oc3c(C)c2o1` [TRIOXSALEN]: the “collision cross section (N2)” value in series [2] ([M+H]+) worked out at 147.4 Å².

In the case of `CC(C)c1ccc2c(c1O)CC[C@H]1C3=C(CC[C@]21C)C(=O)OC3` [TRIPTOPHENOLIDE], the “collision cross section (N2)” value in series [2] ([M+H]+) is listed as 179.4 Å².

Regarding `C[C@@H]1O[C@@H](OC[C@H]2O[C@@H](Oc3c(-c4ccc(OCCO)c(OCCO)c4)oc4cc(OCCO)cc(O)c4c3=O)[C@H](O)[C@@H](O)[C@@H]2O)[C@H](O)[C@H](O)[C@H]1O` [TROXERUTIN], the “collision cross section (N2)” value in series [2] ([M+H]+) came to 259 Å².

As for `NCCc1c[nH]c2ccccc12` [TRYPTAMINE], the “collision cross section (N2)” value in series [2] ([M+H-H2O]+) turned out to be 124.4 Å².

For the molecule `COc1cc2c3cc1Oc1cc(ccc1O)C[C@@H]1c4c(cc(OC)c(O)c4Oc4ccc(cc4)C[C@@H]3N(C)CC2)CC[N+]1(C)C` [TUBOCURARINE CHLORIDE], the “collision cross section (N2)” value in series [2] ([M+H]+) is reported as 236 Å².

In the case of `CC(C)[C@@H]1NC(=O)[C@H](C)OC(=O)[C@@H](C(C)C)NC(=O)[C@@H](C(C)C)OC(=O)[C@H](C(C)C)NC(=O)[C@H](C)OC(=O)[C@@H](C(C)C)NC(=O)[C@@H](C(C)C)OC(=O)[C@H](C(C)C)NC(=O)[C@H](C)OC(=O)[C@@H](C(C)C)NC(=O)[C@@H](C(C)C)OC1=O` [VALINOMYCIN], the “collision cross section (N2)” value in series [2] ([M+H]+) turned out to be 327.4 Å².

For the molecule `CCCCC(=O)N(Cc1ccc(-c2ccccc2-c2nn[nH]n2)cc1)[C@H](C(=O)O)C(C)C` [VALSARTAN], the “collision cross section (N2)” value in series [2] ([M+H]+) is on record as 202 Å².

Regarding `Nc1ncnc2c1ncn2[C@@H]1O[C@H](CO)[C@@H](O)[C@@H]1O` [VIDARABINE], the “collision cross section (N2)” value in series [2] ([M+H]+) turned out to be 156.4 Å².

For the molecule `CC[C@]12CCCN3CCc4c(n(c5ccccc45)[C@@](O)(C(=O)OC)C1)[C@@H]32` [VINCAMINE], the “collision cross section (N2)” value in series [2] ([M+H]+) is given as 180.9 Å².

As for `COc1cc(O)c(C(C)=O)c(OC)c1` [XANTHOXYLIN], the “collision cross section (N2)” value in series [2] ([M+H]+) was 135.9 Å².

On to `CCCOc1ccccc1-c1nc2[nH][nH]nc-2c(=O)n1` [ZAPRINAST], for which the “collision cross section (N2)” value in series [2] ([M+H]+) is 159.2 Å².

As to `CN(C)CCc1c[nH]c2ccc(C[C@H]3COC(=O)N3)cc12` [ZOLMITRIPTAN], the “collision cross section (N2)” value in series [2] ([M+H]+) is 159.7 Å².

For `CN1CCN(C(=O)OC2c3nccnc3C(=O)N2c2ccc(Cl)cn2)CC1` (stereo unspecified) [ZOPICLONE], the “collision cross section (N2)” value in series [2] ([M+H]+) was found to be 186.5 Å².

`CC(=O)O[C@@H]1CC2C(C)(C)[C@H](O)CC[C@]2(C)C2CC[C@@]3(C)[C@H](c4ccoc4)OC(=O)C4OC43[C@@]21C` (stereo partly drawn) [alpha-DIHYDROGEDUNOL]: in series [2] ([M+H]+), the “collision cross section (N2)” value was 205.9 Å².

`COc1c(O)cc2oc3cc(O)c(CC=C(C)C)c(O)c3c(=O)c2c1CC=C(C)C` [alpha-MANGOSTIN]: the “collision cross section (N2)” value in series [2] ([M+H]+) was 198.8 Å².

In the case of `CC(=O)Oc1c(C)c(C)c2c(c1C)CCC(C)(CCCC(C)CCCC(C)CCCC(C)C)O2` (stereo not drawn) [alpha-TOCHOPHERYL ACETATE], the “collision cross section (N2)” value in series [2] ([M+H]+) stood at 230.2 Å².

As to `CC12CCCC(O)(C1)C1CC(C)(C)C1CC2` (stereo not drawn) [beta-CARYOPHYLLENE ALCOHOL], the “collision cross section (N2)” value in series [2] ([M+H]+) is 146.1 Å².
